Reference: patent US9469615B2, “Quinoxalines and AZA-quinoxalines as CRTH2 receptor modulators” (Merck Sharp & Dohme Corp., priority 2010, dated 2016)

Molecular target: T1, hCRTH2 (Homo sapiens, UniProt Q9Y5Y4)
T1 construct: expressed in transfected cells; host or cells: HEK (human embryonic kidney) cells expressing hCRTH2; membrane preparation
T1 sequence (Q9Y5Y4 1-395): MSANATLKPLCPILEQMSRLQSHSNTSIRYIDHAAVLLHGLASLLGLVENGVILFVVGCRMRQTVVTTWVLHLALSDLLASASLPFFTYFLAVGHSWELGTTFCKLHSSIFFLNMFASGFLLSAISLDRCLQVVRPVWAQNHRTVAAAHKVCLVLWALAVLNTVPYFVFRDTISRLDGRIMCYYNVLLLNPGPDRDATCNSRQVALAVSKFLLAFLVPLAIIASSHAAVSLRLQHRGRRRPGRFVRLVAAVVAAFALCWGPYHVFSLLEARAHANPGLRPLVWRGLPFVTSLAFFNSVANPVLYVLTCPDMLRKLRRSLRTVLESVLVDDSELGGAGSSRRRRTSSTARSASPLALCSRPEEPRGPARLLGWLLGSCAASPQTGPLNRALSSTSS
Test: Radioligand binding assay ([3H]PGD2 competition, HEK-hCRTH2 membranes)
Conditions: [3H]PGD2 competition, Table B
Outline: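 HEK-hCRTH2 membranes, 8-20 μg; [3H]PGD2 3.0 nM; 50 mM Tris-HCl pH 7.4/1 mM EDTA/2 mM MnCl2; DMSO 1%; 60 min RT; NSB 10 μM PGD2; filtration, scintillation counting.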

SMILES	Ki [nM]
CN(C)c1cccc(-c2nc3ccc(C(=O)N[C@@H]4CCCc5ccccc54)cc3nc2CCCCC(=O)O)c1 [compound 330, (R)-5-(3-(3-(dimethylamino)phenyl)-7-((1,2,3,4-tetrahydronaphthalen-1-yl)carbamoyl)quinoxalin-2-yl)pentanoic acid]	2.1 to 20
O=C(O)CCCCc1nc2cc(C(=O)NC3CSc4ccccc43)ccc2nc1-c1ccc(Cl)cc1 (stereo not drawn) [compound 331, 5-(3-(4-chlorophenyl)-7-((2,3-dihydrobenzo[b]thiophen-3-yl)carbamoyl)quinoxalin-2-yl)pentanoic acid]	2.1 to 20
N#Cc1ccc2c(c1)OCC[C@H]2NC(=O)c1ccc2nc(-c3ccc(Cl)cc3)c(CCCCC(=O)O)nc2c1 [compound 332, (R)-5-(3-(4-chlorophenyl)-7-((7-cyanochroman-4-yl)carbamoyl)quinoxalin-2-yl)pentanoic acid]	2.1 to 20
N#Cc1ccc2c(c1)OCC[C@@H]2NC(=O)c1ccc2nc(-c3ccc(Cl)cc3)c(CCCCC(=O)O)nc2c1 [compound 333, (S)-5-(3-(4-chlorophenyl)-7-((7-cyanochroman-4-yl)carbamoyl)quinoxalin-2-yl)pentanoic acid.]	2.1 to 20
O=C(O)CCCCc1nc2cc(C(=O)N[C@@H]3CCOc4cc(Cl)ccc43)ccc2nc1-c1ccc(Cl)cc1 [compound 334, (R)-5-(7-((7-chlorochroman-4-yl)carbamoyl)-3-(4-chlorophenyl)quinoxalin-2-yl)pentanoic acid]	2.1 to 20
O=C(O)CCCCc1nc2cc(C(=O)N[C@H]3CCOc4cc(Cl)ccc43)ccc2nc1-c1ccc(Cl)cc1 [compound 335, (S)-5-(7-((7-chlorochroman-4-yl)carbamoyl)-3-(4-chlorophenyl)quinoxalin-2-yl)pentanoic acid]	2.1 to 20
CN(C(=O)c1ccc2nc(-c3ccc(Cl)cc3)c(CCCCC(=O)O)nc2c1)C1NC(=O)c2ccccc21 (stereo not drawn) [compound 336, 5-(3-(4-chlorophenyl)-7-(methyl(3-oxoisoindolin-1-yl)carbamoyl)quinoxalin-2-yl)pentanoic acid]	20.1 to 200
O=C(O)CCCCc1nc2cc(C(=O)N3CCC(N4CCCCC4)CC3)ccc2nc1-c1ccc(Cl)cc1 [compound 337, 5-(7-([1,4′-bipiperidine]-1′-carbonyl)-3 (4-chlorophenyl)quinoxalin-2-yl)pentanoic acid]	20.1 to 200
O=C(O)CCCCc1nc2cc(C(=O)N3CCC(n4ccc5ccccc54)CC3)ccc2nc1-c1ccc(Cl)cc1 [compound 338, 5-(7-(4-(1H-indol-1-yl)piperidine-l-carbonyl)-3-(4-chlorophenyl)quinoxalin-2-yl)pentanoic acid]	2.1 to 20
O=C(O)CCCCc1nc2cc(C(=O)N3CCC(N4CCCC4)CC3)ccc2nc1-c1ccc(Cl)cc1 [compound 339, 5-(3-(4-chlorophenyl)-7-(4-(pyrrolidin-1-yl)piperidine-1-carbonyl)quinoxalin-2-yl)pentanoic acid]	20.1 to 200
O=C(O)CCCCc1nc2cc(C(=O)N3CCC4(CCOC4)CC3)ccc2nc1-c1ccc(Cl)cc1 [compound 340, 5-(3-(4-chlorophenyl)-7-(2-oxa-8-azaspiro[4.5]decane-8-carbonyl)quinoxalin-2-yl)pentanoic acid]	2.1 to 20
O=C(O)CCCCc1nc2cc(C(=O)N3CCC(n4cncn4)CC3)ccc2nc1-c1ccc(Cl)cc1 [compound 341, 5-(7-(4-(1H-1,2,4-triazol-yl)piperidine-1-carbonyl)-3-(4-chlorophenyl)quinoxalin-2-yl)pentanoic acid]	2.1 to 20
O=C(O)CCCCc1nc2cc(C(=O)N3CCC(n4cccn4)CC3)ccc2nc1-c1ccc(Cl)cc1 [compound 342, 5-(7-(4-(1H-pyrazol-1-yl)piperidine-1-carbonyl)-3-(4-chlorophenyl)quinoxalin-2-yl)pentanoic acid]	2.1 to 20
O=C(O)CCCCc1nc2cc(C(=O)N3CCC4(CC3)COc3ccccc34)ccc2nc1-c1ccc(Cl)cc1 [compound 343, 5-(3--(4-chlorophenyl)-7-(2H-spiro[benzofuran-3,4′-piperidin]-1′-ylcarbonyl)quinoxalin-2-yl)pentanoic acid]	2.1 to 20
O=C(O)CCCCc1nc2cc(C(=O)N3CCC4(CC3)NC(=O)c3ccccc3O4)ccc2nc1-c1ccc(Cl)cc1 [compound 344, 5-(3-(4-chlorophenyl)-7-(4-oxo-3,4-dihydrospiro[benzo[e][1,3]oxazine-2,4′-piperidin]-1′-ylcarbonyl)quinoxalin-2-yl)pentanoic acid]	2.1 to 20
O=C(O)CCCCc1nc2cc(C(=O)N3CC4CCCC(C3)C4c3ccccc3)ccc2nc1-c1ccc(Cl)cc1 [compound 345, 5-(3-(4-chlorophenyl)-7-((1R,5S,9r)-9-phenyl-3-azabicyclo[3.3.1]nonane-3-carbonyl)quinoxa1in-2-yl)pentanoic acid]	2.1 to 20
Cn1cnc(C2CCN(C(=O)c3ccc4nc(-c5ccc(Cl)cc5)c(CCCCC(=O)O)nc4c3)CC2)c1 [compound 346, 5-(3-(4-chlorophenyl)-7-(4-(1-methyl-1H-imidazol-4-yl)piperidine-1-carbonyl)quinoxalin-2-yl)pentanoic acid]	2.1 to 20
O=C(O)CCCCc1nc2cc(C(=O)N3CCc4oc(C5CC5)nc4C3)ccc2nc1-c1ccc(Cl)cc1 [compound 347, 5-(3-(4-chlorophenyl)-7-(2-cyclopropyl-4,5,6,7-tetrahydrooxazolo[4,5-c]pyridine-5-carbonyl)quinoxalin-2-yl)pentanoic acid]	20.1 to 200
O=C(O)CCCCc1nc2cc(C(=O)N3CCC(n4ncc5ccccc54)CC3)ccc2nc1-c1ccc(Cl)cc1 [compound 348, 5-(7-(4-(1H-indazol-1-yl)piperidine-1-carbonyl)-3-(4-chlorophenyl)quinoxalin-2-yl)pentanoic acid]	2.1 to 20
CN1CC2(CCN(C(=O)c3ccc4nc(-c5ccc(Cl)cc5)c(CCCCC(=O)O)nc4c3)CC2)CC1=O [compound 349, 5-(3-(4-chlorophenyl)-7-(2-methyl-3-oxo-2,8-diazaspiro[4.5]decane-8-carbonyl)quinoxalin-2-yl)pentanoic acid]	20.1 to 200
O=C(O)CCCCc1nc2cc(C(=O)N3CCN(c4ccccc4)C(=O)C3)ccc2nc1-c1ccccc1 [compound 350, 5-(7-(3-oxo-4-phenylpiperazine-1-carbonyl)-3-phenylquinoxalin-2-yl)pentanoic acid]	20.1 to 200
O=C(O)CCCCc1nc2cc(C(=O)N3CCN(c4ccc(F)cc4)CC3)ccc2nc1-c1ccccc1 [compound 351, 5-(7-(4-(4-fluorophenyl)piperazine-1-carbonyl)-3-phenylquinoxalin-2-yl)pentanoic acid]	2.1 to 20
O=C(O)CCCCc1nc2cc(C(=O)NC3CC(=O)Nc4ccccc43)ccc2nc1-c1ccc(F)cc1 (stereo not drawn) [compound 352, 5-(3-(4-fluorophenyl)-7-((2-oxo-1,2,3,4-tetrahydroquinolin-4-yl)carbamoyl)quinoxalin-2-yl)pentanoic acid]	2.1 to 20
O=C(O)CCCCc1nc2cc(C(=O)N3CCC4(CC3)CNC(=O)c3ccccc34)ccc2nc1-c1ccc(F)cc1 [compound 353, 5-(3-(4-fluorophenyl)-7-(1-oxo-2,3-dihydro-1H-spiro[isoquinoline-4,4′-piperidin]-1′-ylcarbonyl)quinoxalin-2-yl)pentanoic acid]	2.1 to 20
